Results reported in paper PMC11091117, “A fluorescently-tagged tick kinin neuropeptide triggers peristalsis and labels tick midgut muscles” (Scientific Reports, 2024).
Entries after “also recorded” stand apart in the source; their conditions may differ.

Columns and labels:
[1] = test system: vector-only (V/O) CHO-K1 cells; assay: Fluorescence microscopy validation of labeled peptide specificity on live vector-only cells; type: binding; details: 1 µM TMR-RK8, 5 min at room temperature, HBSS; Zeiss Axio Observer, BPTmX channel
Description: BMLK3 and vector-only cells were cultured in selective media (F-12K medium containing 10% fetal bovine serum and 800 µg/mL-1 of G418 sulfate), cells were seeded in […] (CELLSTAR®, Greiner Bio-One®, Monroe, NC USA) at 20,000 cells per well and were incubated overnight. The next assay, the cell culture medium was removed, and cells were rinsed twice with 200 µl DPBS, and 180 µl of HBSS buffer was added into each well. The peptide stock solutions were prepared in 1% DMSO in HBSS at 100 µM. TMR-RK8 (20 µl) was added into each well and incubated with the cells for 5 min at room temperature. The medium was then removed with a pipette and the cells were rinsed twice with 200 µl HBSS, and DAPI (VECTASHIELD® H-1200, Vector Laboratories) was added (20 µl of 0.15 µg/ml) for visualizing the cell nuclei. Cells were rinsed twice with 200 µl of HBSS, and finally 180 µl HBSS per well was added.
The cells were immediately imaged under a Zeiss Axio Observer® inverted fluorescence microscope. The exposure time for the Bodipy-Tetramethylrhodamine-X (BPTmX) fluorescence channel was the same for BMLK3 cells and V/O cells. DAPI imaging was done subsequently using the same focal height as the BPTmx channel.

tick midgut = assay: Tick midgut contraction assay with EthoVision video analysis; design: species or system Rhipicephalus sanguineus
Excerpt: Individual female ticks were immobilized on a Petri dish filled with wax by submerging their legs in melted wax heated with a soldering pencil (Electronic Control Soldering Station EC 1000, Weller, Apex, North Carolina, USA). Females were dissected under physiological saline following the protocol described by Tidwell et al.[51]. The tick was cut along the edge of the scutum/alloscutum using a stainless steel #12 scalpel blade (Integra Miltex, York, PA, USA), after which the scutum was removed with a pair of fine forceps. To expose the midgut for removal, the tracheae, Malpighian tubules, ovaries, rectal sac, and synganglion were removed with fine forceps in that order. The midgut was then carefully removed and placed into 200 µL of fresh tick saline (See Reagents and Peptides) on a single gasketed incubation chamber (500 µL, Size 22 × 40 mm, Electron Microscopy Sciences, Hatfield, PA). The midguts were then rinsed three times with the physiological tick saline for subsequent fluorescent labeling or activity experiments.
Midguts were dissected from immobilized female ticks under tick saline, as described under the Midgut Dissection. Ten different midguts were used for each of the two treatments, and ticks were of the same age and batch and had been maintained under the same conditions. Dissected midguts were placed individually into 200 µL of tick saline for 10 min at 28 °C on a gasketed glass coverslip (500 µL, Size 22 × 40 mm) serving as incubation chamber. […] After the final wash and removal of saline, 200 µL of saline were added, and a microscopy coverslip (24 × 60 mm, VWR, Radnor, PA) was placed over the gasketed portion of the incubation chamber, which height (0.5 mm) fits to prevent the midgut from floating, but still allows midgut peristalsis. The midguts were observed and filmed under a dissecting microscope (Olympus SZ61, Japan) equipped with an Infinity 5 camera (Teledyne Lumenera, Ottawa, ON, Canada). All videos were recorded for 1 min with the INFINITY ANALYZE 7 software (Teledyne Lumenera) at 30 frames/second with a 2464 × 2056 resolution. The field of view in all videos recorded represents 4 × 3.5 mm to capture the entire tick midguts under saline. All video files in Windows Media Video (.wmv) format obtained from the Infinity Analyze 7 software were converted to the MP4 format using CloudConvert (cloudconvert.com, Lunaweb, Munich, Germany) for analyses with the EthoVision XT 17 software (Noldus Information Technology, Wageningen, The Netherlands).
We used the EthoVision 17 XT software to quantify the “activity” (pixel change) of the midguts from the videos recorded. This software defines activity as the percentage of pixels that have changed in the entire defined arena between the current image and previous image. The videos are recorded in 2464 × 2056 resolution and the arena is set to be the entire video screen. Video files were uploaded into the program and analyzed starting from time zero to the end of the 60 s video. Detection settings for activity included the activity threshold which was set to 5 to achieve zero detection when the midgut was immobile. Although the video captured 30 frames (images) per s, for the video analysis we chose a “sample rate” of 7 samples /s, with sample rate being the number of images from the video the EthoVision program analyzes per second. To calculate activity, each pixel of the video image was compared from one image to the next, and the proportion of pixel changes was calculated by dividing the number of pixels changed from one image to the next by the total number of pixels in the image. Care was given for the midgut to occupy most of the arena, as the activity analyses will reflect the midgut movement as a proportion of the total arena. Midgut activity is observed as pixel changes, which are represented by the red-colored pixels in the S4 video. The mean pixel change per midgut was then determined by averaging the pixel changes from all samples within the recording period. […]

Substance: TMR-C-GTGEDQAFSPWGamide [TMR-RK8]
- labeling of vector-only cells, Fig. S1 (in words) [1]: only observed in the BLMK3 cells
- midgut contractions, S4 Video (in words) (tick midgut; 1 µM TMR-RK8, after 1 min of exposure, 4X speed): Rapid contractions were observed shortly after treatment
- midgut peristalsis/contractions (in words) (tick midgut; 10 µM, 1 min, 28 °C, midguts of unfed females ex vivo, video recorded 1 min): inducing significant midgut peristalsis; also recorded: induced peristalsis
- mean activity (mean pixel change, percentage of pixels changed in arena) (tick midgut; 10 µM, 1 min, rinsed twice, 28 °C, tick saline, 60 s video, 7 samples/s, EthoVision XT 17, activity threshold 5, N = 10 midguts): 1%
- mean activity of midguts compared to TMR-Scrambled (in words) (tick midgut; 10 µM, N = 10 vs N = 10, for the duration of the videos): higher mean activity
- pixels changing from each sample to the next (tick midgut; of 5,065,984 pixels per sample, 10 µM, 1 min, 28 °C, N = 10): about 50,660 pixels
- movement of midguts relative to TMR-Scrambled treated midguts (tick midgut; ratio of mean activity, 10 µM, N = 10 per treatment): 10 factor
